Compared with `CCCN(CCC)Cc1nc(-c2ncn3c2CN(C)C(=O)c2c(Br)cccc2-3)no1`, `Cc1nn(C)c2nc(-c3ccccc3)cc(N(C)C)c12` is lower in melting point: 135 to 145 °C for the first, 90 to 91 °C for the second.

First: Cc1cccc(NC(=O)c2ccc3nc(NC4CCN(C)CC4)n(Cc4nc(C)ccc4O)c3c2)c1
Second: CC1CCCC(C)N1Cc1ccc2cc(NC(=O)C3(Cl)C=CC(c4ccccc4Cl)=CC3)ccc2n1 (stereo not given)
The melting point of the first is higher: 172 °C for the first, 162 to 164 °C for the second.

Compared with `COC(=O)COc1nc(Cl)c(Cl)cc1Cl`, `COc1ccc2nc(Cl)cc(CCNC(C)=O)c2c1` is higher in melting point: 99 to 103 °C for the first, 162 to 164 °C for the second.

First: COc1cc(C(C)C)c2c(c1)S(=O)(=O)N(COC(=O)c1cccs1)C2=O
Second: Cn1c2ccccc2c(=O)n2nc(C(N)=O)cc12
The melting point of the first is lower: 139 to 141 °C for the first, 327 to 330 °C for the second.

First: CC(C)CC1CCCCCc2c1oc(=O)c(C(c1ccccc1)C1CC1)c2O (stereo not given)
Second: CC(C(=O)O)c1ccc(-c2ccccc2F)c(O)c1 (stereo not given)
The melting point of the first is lower: 86 to 92 °C for the first, 110 to 111 °C for the second.

First: O=C(CCc1ccccc1)Nc1ccc(C(=O)NN=C2C(=O)Nc3ccc(I)cc32)cc1
Second: N=C(Nc1ccc(F)c(NC(=O)/C=C/c2ccccc2Cl)c1)c1ccccc1
The melting point of the first is higher: 297 °C for the first, 189 to 191 °C for the second.

First: CCCCc1nc(SC)c(C(=O)OCC)n1Cc1ccc(-c2ccc(S(=O)(=O)NC#N)cc2)cc1
Second: CCOC(=O)C1(S(=O)(=O)c2ccc(OC)cc2)CCN(Cc2ccc(-c3ccccc3)cc2)CC1
The melting point of the first is higher: 244 °C for the first, 176 to 178 °C for the second.

Compared with `Cc1ncc(C(=O)N2CCCC2)s1`, `Nc1ccc(C(=S)N2CCCCC2)cc1` is higher in melting point: 71 to 72 °C for the first, 162 to 164 °C for the second.

First: CN(C)CCCOc1cc2oc3cc(-c4ccccc4Cl)c4c(c3c2cc1O)C(=O)NC4=O
Second: Cc1c(Cc2cccc3ccccc23)c(=O)oc2cc(O)cc(O)c12
The melting point of the first is lower: 255 to 258 °C for the first, 275 to 280 °C for the second.

First: Cc1cc(Cl)ccc1OCC(=O)N1Cc2ccc(C(=O)C(Cl)(Cl)Cl)n2Cc2ccccc21
Second: O=C(C=Cc1ccc(OCc2ccccc2)c([N+](=O)[O-])c1)Nc1ccc(Cl)cc1Cl
The melting point of the first is higher: 156 to 158 °C for the first, 152 to 153 °C for the second.

Compared with `Nc1cccc(S(=O)(=O)NCc2ccccn2)c1`, `O=C(NCc1ccccn1)c1cc(-n2cnn(Cc3ccc(F)cc3)c2=O)n[nH]1` is higher in melting point: 124 °C for the first, 224 to 225 °C for the second.

First: O=c1cc(O)c2ccc(OCC(O)COc3ccccc3)cc2o1 (stereo not given)
Second: NS(=O)(=O)c1cc(C(=O)O)cc(OCc2ccsc2)c1-c1ccccc1
The melting point of the first is lower: 145 to 175 °C for the first, 222 to 223 °C for the second.

Compared with `CSC(=C[N+](=O)[O-])NCCSCc1nccs1`, `O=C(NCCCc1ccccc1)Nc1ccccn1` is higher in melting point: 63 to 64 °C for the first, 127 to 128 °C for the second.

First: O=C1N(Cc2ccc(C(F)(F)F)o2)c2c(Cl)cccc2C12COc1cc3c(cc12)CCO3 (stereo not given)
Second: Cn1cc(-c2cnc3c(c2)N(Cc2cc(Cl)ccc2C(F)(F)F)CCN3)cn1
The melting point of the first is higher: 210 to 211 °C for the first, 156 °C for the second.

Compared with `Cc1cc(-c2ccc(-c3ccc(OCC4CO4)cc3)cc2)ccc1OCC1CO1` (stereo not given), `N#Cc1c(NCCCn2ccnc2)cccc1Oc1ccc(-c2cn(C3CCOC3)c3ncnc(N)c23)cc1` (stereo not given) is lower in melting point: 180 °C for the first, 110 °C for the second.

First: C(=C\c1nc2ccccc2n1-c1cccnc1)/c1ccccc1
Second: Brc1ccccc1-n1cnc2cnc3ccc(-c4ccccc4)cc3c21
The melting point of the first is lower: 118 °C for the first, 128 to 129 °C for the second.

First: O=C(Cl)c1cccc(Oc2ccc(S(=O)(=O)c3ccc(Oc4cccc(C(=O)Cl)c4)cc3)cc2)c1
Second: O=C(OCc1ccc(F)cc1)c1cccc(C(=O)OCc2ccc(F)cc2)c1
The melting point of the first is higher: 113 to 116 °C for the first, 78 to 79 °C for the second.

First: COc1cc2c(cc1Nc1ncc(Cl)c(Nc3ccccc3S(C)(=O)=O)n1)CCN(CC(N)=O)CC2
Second: COc1ccc(C(=O)c2ccccc2N)cn1
The melting point of the first is higher: 111 to 123 °C for the first, 60 to 62 °C for the second.

First: Cc1cccc2c1-n1nnnc1SC2
Second: Cc1cc2c([C@@H]3C[C@H]3CNC(=O)C3CC3)cccn2n1 (relative stereo)
The melting point of the first is higher: 174 °C for the first, 124 to 128 °C for the second.

First: O=C(c1ccc(Cl)cc1)n1cc(CCN=c2sc3ccccc3s2)c2ccccc21
Second: O=c1c2ccc(Cl)cc2[nH]c2c(O)nn(Cc3ccco3)c(=O)c12
The melting point of the first is lower: 135 °C for the first, greater than 265 °C for the second.

First: CC(C)(C)OC(=O)N(C(=O)OC(C)(C)C)C(Cc1c[nH]cn1)C(=O)OCc1ccccc1 (stereo not given)
Second: COC(=O)CCc1ccc(-n2cn[nH]c2=O)cc1
The melting point of the first is lower: 97 to 99.5 °C for the first, 174 to 176 °C for the second.

Compared with `N#Cc1cc(N2CCCCC2)ccc1N`, `CCOC(=O)/C(=N\OC1CCCCCC1)c1csc(N)n1` is higher in melting point: 87 to 88 °C for the first, 107 to 108 °C for the second.

First: O=P(O)(O)C(O)C(O)P(=O)(O)O (stereo not given)
Second: N[C@@H](CS(=O)(=O)O)C(=O)O
The melting point of the first is lower: 209 to 211 °C for the first, 273 to 275 °C for the second.

First: COC(=O)C1CCc2c(noc2-c2ccc(Cl)cc2)C1 (stereo not given)
Second: ON=C(c1cccc(F)c1)c1ccc(O)c(Cl)c1Cl
The melting point of the first is lower: 141 to 143 °C for the first, 178 to 185 °C for the second.

Compared with `CNC(=O)N1C=CSC1c1sc(SC)c2c1CC(C)(C)CC2=O` (stereo not given), `CCOC(=O)c1cc(-c2cc(C)on2)[nH]n1` is lower in melting point: 202 to 204 °C for the first, 149 to 151 °C for the second.
